Conditions: Fluid (supercritical or subcritical phases), Buoyancy - hydrostatic balance with magnetic suspension - one sinker

C [methane]
Conditions	mass density [kg/m3]
298.14 K, 20012 kPa	157.172
298.14 K, 29958 kPa	212.508
298.14 K, 35056 kPa	232.422
298.14 K, 49959 kPa	273.189
298.14 K, 99874 kPa	342.269
298.14 K, 124934 kPa	363.139
298.14 K, 150062 kPa	380.039
298.14 K, 159617 kPa	385.731
298.14 K, 170054 kPa	391.531
298.14 K, 185333 kPa	399.489
298.14 K, 186931 kPa	400.257
298.14 K, 188059 kPa	400.837
298.15 K, 10010 kPa	76.08
298.15 K, 79980 kPa	321.098
298.16 K, 1012 kPa	6.665
298.16 K, 66961 kPa	303.605
298.19 K, 5009 kPa	35.316
298.25 K, 14994 kPa	118.506
305.23 K, 9993 kPa	72.932
305.23 K, 49968 kPa	267.232
305.23 K, 60012 kPa	287.019
305.23 K, 79855 kPa	316.163
305.23 K, 99904 kPa	337.939
305.23 K, 124930 kPa	359.159
305.23 K, 149862 kPa	376.248
305.24 K, 1002 kPa	6.404
305.24 K, 2000 kPa	13.031
305.24 K, 5001 kPa	34.173
305.24 K, 6897 kPa	48.435
305.24 K, 15006 kPa	113.44
305.24 K, 20696 kPa	155.024
305.24 K, 29976 kPa	205.443
305.24 K, 34563 kPa	223.779
305.24 K, 69988 kPa	302.917
338.04 K, 6905 kPa	42.093
338.05 K, 5000 kPa	29.983
338.05 K, 34473 kPa	195.446
338.06 K, 70001 kPa	280.639
338.07 K, 124895 kPa	341.685
338.07 K, 149542 kPa	359.787
338.08 K, 1004 kPa	5.782
338.08 K, 2004 kPa	11.667
338.08 K, 15026 kPa	95.246
338.08 K, 20687 kPa	130.132
338.08 K, 30005 kPa	177.38
338.08 K, 50031 kPa	241.969
338.08 K, 59971 kPa	263.229
338.09 K, 164905 kPa	369.665
338.1 K, 9969 kPa	62.054
338.1 K, 80310 kPa	295.61
338.11 K, 99908 kPa	318.744
338.12 K, 179829 kPa	378.164
399.94 K, 89964 kPa	274.637
399.97 K, 59973 kPa	225.951
399.98 K, 1002 kPa	4.86
399.98 K, 30014 kPa	141.158
399.99 K, 15027 kPa	74.789
400 K, 50037 kPa	203.469
400 K, 79920 kPa	260.652
400.01 K, 2001 kPa	9.744
400.01 K, 6915 kPa	34.195
400.01 K, 10002 kPa	49.746
400.02 K, 20675 kPa	101.642
400.02 K, 124882 kPa	312.062
400.02 K, 149627 kPa	332.136
400.03 K, 13795 kPa	68.723
400.04 K, 34510 kPa	157.64
400.04 K, 69978 kPa	244.725
400.07 K, 5005 kPa	24.61
400.09 K, 99984 kPa	286.8
450 K, 2009 kPa	8.61
450.01 K, 20697 kPa	87.478
450.01 K, 99932 kPa	264.608
450.02 K, 89981 kPa	251.923
450.02 K, 119918 kPa	286.376
450.03 K, 59975 kPa	202.137
450.03 K, 139476 kPa	304.187
450.05 K, 30002 kPa	121.791
450.06 K, 50036 kPa	179.955
450.06 K, 69966 kPa	221.073
450.08 K, 80008 kPa	237.571
450.09 K, 6886 kPa	29.741
450.12 K, 34492 kPa	136.647

— the NIST ThermoML archive (doi:10.1021/je9004849)
